Measurements: patent publication US20260183399A1, “METHOD FOR MODULATING KINASE ACTIVITY AND USE THEREOF” (CENTER FOR EXCELLENCE IN MOLECULAR CELL SCIENCE, CHINESE …, priority 2022, published 2026)

How the values were obtained:
LKB1 kinase = target: T1, LKB1 kinase (Homo sapiens, UniProt Q15831); test: In vitro kinase experiment with LKB1 kinase (excluding STRAD1 and MO25) and His-AMPK α1; type: biochemical; details: metabolite 100 μM; FIG. 1J
T1 construct: the general method says FLAG-LKB1 instead) (N); made in house; host or cells: HEK293T (293T) cells, transfected; immunoprecipitation
T1 sequence (Q15831 1-433): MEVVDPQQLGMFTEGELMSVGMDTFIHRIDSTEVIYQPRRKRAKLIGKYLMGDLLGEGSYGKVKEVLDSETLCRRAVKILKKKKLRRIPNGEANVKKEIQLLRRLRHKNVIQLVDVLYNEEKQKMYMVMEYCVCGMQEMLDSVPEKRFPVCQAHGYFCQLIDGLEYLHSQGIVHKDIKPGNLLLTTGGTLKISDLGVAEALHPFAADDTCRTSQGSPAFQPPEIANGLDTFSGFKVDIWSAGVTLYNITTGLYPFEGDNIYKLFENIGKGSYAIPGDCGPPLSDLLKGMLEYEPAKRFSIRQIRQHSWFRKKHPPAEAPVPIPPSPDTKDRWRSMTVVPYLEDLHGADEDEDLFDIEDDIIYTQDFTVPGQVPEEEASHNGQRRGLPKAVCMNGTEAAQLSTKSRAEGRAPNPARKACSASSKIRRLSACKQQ
Description: (§1) The final reaction system for kinase experiment was: 50 mM Tris HCl, 10 mM MgCl2, 1 mM DTT, and 100 μM ATP. HEK293T cells were co-transfected with equal amounts of GST-LKB1, FLAG-STRAD, MYC-MO25 plasmids or solely transfected with FLAG-LKB1 plasmid. The cells were collected, processed for immunoprecipitation using GST beads or FLAG beads, washed three times with cell lysis buffer containing NP-40, and washed twice with kinase reaction buffer. The His-AMPK protein was induced and purified using E. coli BL21 competent cells. The kinase was incubated with metabolites at 100 μM at room temperature for 15 minutes before reaction, then added with reaction buffer and His-AMPK protein, and reacted at […] for 30 minutes. The phosphorylation of AMPK protein was detected by Western blot.
The final reaction system for the kinase experiment was 50 mM Tris-HCl, 10 mM MgCl2, 1 mM DTT, and 100 μM ATP. […] The kinase complex was pre-incubated with metabolites at room temperature for 15 minutes before reaction. Then the reaction buffer and His-AMPK protein were added, and reacted at 37° C. for 30 minutes. The phosphorylation of AMPK protein was detected by Western blot.

[1] = system: AMPK α-catalytic subunit phosphorylation in 293T cells; test: Metabolite treatment of glucose-starved 293T cells, Western blot of AMPK phosphorylation; type: cell-based; details: glucose starvation 2 hours
Description: Cells were subjected to glucose starvation treatment using glucose free culture medium for 2 hours. The corresponding metabolites were added to the culture medium according to the instructions shown in FIG. 1C and FIG. 1D, so that their concentration in the culture medium reached the labeled level, if there was no labeling, the concentration of metabolites in the culture medium was […]. After treatment, cells were collected to prepare lysis buffer, and the changes in specific proteins and phosphorylation of specific sites were detected by Western blot.
When the expression and function of these metabolic enzymes are inhibited, their corresponding products are decreased. Therefore, we speculate that there may be a mechanism by which AMPK is regulated by metabolite molecules in the glycolytic metabolic pathway, and the activation level of AMPK is related to metabolite content. To verify this hypothesis, we added different doses of exogenous 3-phosphoglycerate (3-PG) to 293T cells subjected to glucose starvation treatment (activation of AMPK signaling pathway). […] After treatment, cells were collected to prepare lysate, and the changes in specific proteins and the changes in phosphorylation sites of AMPK α-catalytic subunit were detected by Western blot.

[2] = target: T2, LKB1-STRAD1-MO25 kinase complex (Homo sapiens, UniProt Q15831); test: In vitro kinase experiment with LKB1 kinase complex and His-AMPK α1; type: biochemical
T2 construct: GST (N); made in house; host or cells: HEK293T (293T) cells, co-transfected
T2 sequence (Q15831 1-433): T1 sequence (Q15831 1-433)
T2 sequence (Q7RTN6 1-431 partner): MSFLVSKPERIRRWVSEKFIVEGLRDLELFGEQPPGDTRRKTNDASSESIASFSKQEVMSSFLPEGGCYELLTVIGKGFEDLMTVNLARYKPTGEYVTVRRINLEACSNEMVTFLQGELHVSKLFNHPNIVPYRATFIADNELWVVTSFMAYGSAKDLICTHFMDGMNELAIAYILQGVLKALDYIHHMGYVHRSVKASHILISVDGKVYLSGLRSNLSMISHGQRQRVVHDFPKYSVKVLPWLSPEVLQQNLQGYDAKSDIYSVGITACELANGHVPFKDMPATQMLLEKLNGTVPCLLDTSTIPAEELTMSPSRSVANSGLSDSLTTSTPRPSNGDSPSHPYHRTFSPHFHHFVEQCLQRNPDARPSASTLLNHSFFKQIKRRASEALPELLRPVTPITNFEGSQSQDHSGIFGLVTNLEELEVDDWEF
T2 sequence (Q9Y376 1-341 partner): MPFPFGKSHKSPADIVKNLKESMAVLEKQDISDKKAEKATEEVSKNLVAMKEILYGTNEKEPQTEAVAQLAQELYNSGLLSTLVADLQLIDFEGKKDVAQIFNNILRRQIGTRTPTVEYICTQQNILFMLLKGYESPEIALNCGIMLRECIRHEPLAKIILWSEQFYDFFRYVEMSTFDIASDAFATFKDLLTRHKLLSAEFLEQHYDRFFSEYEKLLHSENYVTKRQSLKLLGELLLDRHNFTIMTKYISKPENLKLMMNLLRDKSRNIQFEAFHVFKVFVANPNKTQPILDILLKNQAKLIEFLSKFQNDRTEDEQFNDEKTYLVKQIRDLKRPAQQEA
Description: as §1
Given that LKB1 is a key upstream kinase that phosphorylates and activates the AMPK a subunit, we speculate that the aforementioned metabolites may affect the phosphorylation activation of AMPK a subunit by LKB1 kinase or LKB1 kinase complex. To verify this hypothesis, GST-LKB1, FLAG-STRAD1, and MYC-MO25 were co-transfected into 293T cells (2 μg of each expression plasmid, and transfected into about 7×10^6 cells). After 48 hours, cells were collected and lysed, and then the LKB1-STRAD1-MO25 kinase complex was subjected to glutathione-agarose bead affinity purification, and co-incubated with the recombinant His-AMPK α1 subunit expressed in E. coli for in vitro kinase experiments. The final reaction system for kinase experiment was: 50 mM Tris HCl, 10 mM MgCl2, 1 mM DTT, 100 μM ATP. At the same time, metabolites such as 3-phosphoglyceraldehyde (GAP) or 3-phosphoglycerate (3-PG) were added to 100 μM according to the diagram (as shown in FIG. 1H), or to a concentration of 50-400 μM as shown in the diagram (as shown in FIG. 1I). The kinase complex was pre-incubated with metabolites at room temperature for 15 minutes before reaction. Then the reaction buffer and His-AMPK protein were added, and reacted at 37° C. for 30 minutes. The phosphorylation of AMPK protein was detected by Western blot.

[3] = target: T3, recombinant human PGK1 protein (Homo sapiens, UniProt P00558); test: In vitro enzyme activity of PGK1 (ATP detection kit, IC50 inhibition curve); type: biochemical; details: S33 0, 1, 3, 5, 7, 10, 30 μM; 37° C. for 25 minutes; FIG. 1F
T3 construct: made in house; host or cells: Escherichia coli
T3 sequence (P00558 1-417): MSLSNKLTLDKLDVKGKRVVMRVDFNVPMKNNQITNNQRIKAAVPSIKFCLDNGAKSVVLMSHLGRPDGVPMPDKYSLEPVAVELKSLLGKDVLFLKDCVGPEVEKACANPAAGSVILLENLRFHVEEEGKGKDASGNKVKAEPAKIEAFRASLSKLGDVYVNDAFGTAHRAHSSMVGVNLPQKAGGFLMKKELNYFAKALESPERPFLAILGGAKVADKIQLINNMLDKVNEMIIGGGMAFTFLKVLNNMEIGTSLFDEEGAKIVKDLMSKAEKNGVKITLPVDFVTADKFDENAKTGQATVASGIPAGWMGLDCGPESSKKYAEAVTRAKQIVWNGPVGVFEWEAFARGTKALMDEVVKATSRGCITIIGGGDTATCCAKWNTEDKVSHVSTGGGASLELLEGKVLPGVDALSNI
Description: A substrate buffer mixture with a final concentration of 10 mM KH2PO4, pH7.0, 2 mM GAP, 0.6 mM β-NAD, 0.4 mM ADP, 10 mM MgSO4, 200 mM Glycine, and 0.01 μg/μL GAPDH was prepared. The purified hPGK1 recombinant protein was diluted to 0.2 ng/μL. Inhibitors were added to the protein and a concentration gradient was set up. Each reaction was added with 100 μl of substrate and a mixture of 100 μl hPGK1 protein and inhibitor, and reacted at 37° C. for 25 minutes. After centrifuged at 10000 rpm for 10 minutes at 4° C., 100 μl of supernatant was taken. In the ATP detection kit (Beyotime S0026), the ATP detection solution was diluted with ATP detection diluent at a ratio of 1:10. In a 96 well blank plate, each well was added with 100 μl of diluted detection solution, and let it stand at room temperature for 5 minutes, added with 100 μl of supernatant from enzyme activity reaction, and reacted for 5 seconds, and a microplate reader was used to read the fluorescence value. The relative enzyme activity was calculated based on fluorescence values and IC50 values were calculated using GraphPad nonlinear regression fitting.
The compound (S33, patent number: ZL201610826187. X) reported in the previous patent is a PGK1 inhibitor (FIG. 1E), and we determined the inhibitory activity of compound S33 on PGK1. […]

[4] = system: AMPK pathway (AMPK α-catalytic subunit and ACC1 phosphorylation) in HeLa and 293T cells; test: S33 treatment of HeLa and 293T cells, Western blot of AMPK pathway; type: cell-based; details: 2, 5 and 10 μM, 2 hours, dose-dependent, FIG. 1G
Description: In order to investigate the regulatory effect of PGK1 inhibition on AMPK pathway, different concentrations of S33 (2, 5, and 10 μM, respectively) were added to the culture supernatants of HeLa and 293T cells, and treated for 2 hours. Cell lysate was collected and the changes in specific proteins and in AMPK α-catalytic subunit phosphorylation sites, as well as the phosphorylation of the classical substrate ACC1, downstream of the AMPK pathway, were detected by western blot.

SMILES | phosphorylation of AMPK α1 by LKB1 kinase (LKB1 kinase) | phosphorylation of AMPK α1 by LKB1 kinase complex ([2]; metabolite 100 μM, FIG. 1H) | also measured
O=C(COP(=O)(O)O)[C@@H](O)[C@H](O)[C@H](O)COP(=O)(O)O [1,6-fructose diphosphate] | had no such effect |  | 
O=C(O)[C@@H](CO)OP(=O)(O)O [2-phosphoglycerate] | significantly inhibit |  | AMPK α-catalytic subunit phosphorylation signaling ([1]; metabolite 200 μM, FIG. 1D): inhibitory effects
O=CC(O)COP(=O)(O)O (stereo not drawn) [3-phosphoglyceraldehyde] | had no such effect | had no such effect | 
COc1cc2nc(N3CCC(N(C)C(=O)C4CCCO4)CC3)nc(N3CCOCC3)c2cc1Cl (stereo not drawn) [S33] |  |  | inhibitory activity of compound on PGK1 [3]: effective inhibitor of PGK1; ACC1 phosphorylation [4]: upregulate; AMPK α-catalytic subunit phosphorylation [4]: upregulate
O=C(O)[C@H](O)COP(=O)(O)O [3-phosphoglycerate] | significantly inhibit | strongly inhibited | intracellular AMPK α-catalytic subunit phosphorylation signaling ([1]; metabolite 100-800 μM, FIG. 1C): significantly inhibited intracellular AMPK α-catalytic subunit phosphorylation signaling in a dose-dependent manner; phosphorylation of AMPK α1 by LKB1 kinase complex ([2]; metabolite 50-400 μM, FIG. 1I): inhibits the phosphorylation of AMPK α1 by LKB1 kinase complex in a dose-dependent manner
